Assay results from patent EP0286781A2, “Pharmaceutical preparation for treating gastro-intestinal tract diseases” (HEUMANN PHARMA GMBH & CO, priority 1987, dated 1988).

Experiments:
[1] = system: immobilisationsstreßinduzierten gastromukosalen Schädigung der Ratte; assay: Immobilisation-stress-induced gastromucosal damage in the rat (ulcer index); type: in vivo, Sprague-Dawley-Ratten; settings: Dosis 50 mg/kg, intragastral in 1%iger Tylose
Source text: Untersuchungen am Modell der immobilisationsstreßinduzierten gastromukosalen Schädigung der Ratte
(1984), "Scand. J. Gastroenterol.", 19, (Suppl. 101), 69).
Gestreßt wurden die Tiere unmittelbar nach Applikation. Nach Versuchsende wurden den Tieren die Mägen in Ethernarkose entnommen. Die Mägen wurden entlang der großen Kurvatur eröffnet und gespült. Ausmaß und Beschaffenheit der Läsionen wurden nach einer von Marazzi-Uberti und Turba (C. Med. exp., 4, 284 (1961)) angegebenen Einteilung visuell ausgezählt und als Ulcus-Index ausgedrückt.

[2] = hochdosiert, ca. 50 mg/kg; A. Robert u.a. (1984); cited from earlier work

CN=C(NC#N)NCCSCc1[nH]cnc1C [Cimetidin]
Ulcus-Index (MW ±) SD ([1]; rats fasted 16 h, 10 animals, control 1% Tylose 69,8 ± 10,7, significant vs control): 32,1 ± 6,6*)
% Hemmung ([1]; inhibition of Ulcus-Index vs 1% Tylose control): 54%
ulcus- bzw. cytoprotektive Wirkung [2]: ulcus- bzw. cytoprotektive Wirkung
